# Source: patent publication US10517965B2, “Bioorthogonal turn-on probes” (The General Hospital Corporation, priority 2013, dated 2019)
# How the values were obtained:
# [1] = Fluorogenic characterization of HELIOS probes on reaction with TCOc; format: physicochemical; settings: for peak turn-on ratio upon reaction with TCOc: PBS; for Fluorescence Enhancement: fluorogenic turn-on ratio of the Me-tetrazines upon reaction with TCOc
# Method: As described above, the fluorescence purity of all HELIOS compounds was verified by LCMS prior to quantitative activation experiments, for which a fresh aliquot of the fluorophore collected from the analytical HPLC elution was used. Exceptionally pure material is required to obtain the peak measured turn-on ratios, as the presence of trace bright contaminants limits the maximum observable ratio.
# (§1) Stock solutions of the freshly-purified tetrazine dyes were prepared in MeCN and stored in the dark at 4° C. during experiments. For fluorescence measurements, the probes diluted into 2 mL or 3 mL of phosphate buffered saline (PBS), pH 7.4 (Corning, cellgro) in a standard 10 mm quartz cuvette. Working at peak excitation and emission wavelengths for each probe, data were collected as a continuous time series to enable accurate measurement of the baseline intensity values and optimize signal to noise. Fluorescence experiments were conducted at a range of dye concentrations spanning 100 nM-750 nM, with 500 nM being a typical working concentration. The time to peak turn on ratio (but not the final magnitude) is a function of the added TCOc (see Example 25) concentration; for the time courses presented herein, 10 μM TCOc was used. Measurements of solvent and pre-activation emission intensity for baseline values were collected serially over at least 30 seconds, prior to addition of TCOc to initiate the fluorogenic reaction. After addition of TCOc (typically a 20-fold excess, as above), the fluorescence emission intensity was monitored until a plateau was reached. Activation ratios were calculated from the peak emission intensity of the dihydropyridazine product and the corresponding baseline intensity over background. Data were normalized to set the initial background fluorescence of the HELIOS probe to one unit over background, as plotted in FIG. 9 in the main text.
# [2] = Quantum yield determination, quinine sulfate reference; format: physicochemical; settings: dihydropyridazine product after complete reaction with TCOc in PBS pH 7.4; quinine sulfate standard (Φ = 0.546)
# Text: Quantum yield determinations: quinine sulfate dihydrate (Fluorescence Reference Standard grade, AnaSpec, Inc) in 0.5 M H2SO4 was used as a reference, with an excitation wavelength of 370 nm; a value of 0.546 was used for the reference quantum yield (Eaton, D. F., Pure and Applied Chemistry, 1988 60(7), 1107-1114). Calculations were made according to the methods described by Crosby and Demas (Chemical Reviews, 1971, 75(8), 991-1024).
# [3] = Peak excitation/emission wavelengths and extinction coefficient in PBS; format: physicochemical; settings: for ε: at peak excitation wavelength in PBS, pH 7.4, in M-1cm-1 (unit assumed); for Peak Em Wavelength: emission; for Peak Ex Wavelength: excitation
# Method: as §1
# (§2) Microscope: Multichannel images were collected on an Olympus Fluoview FV1000 confocal laser microscope. Coumarin probes were excited with a 405 nm laser, with alternate excitation sources used as relevant for reference channels, paired with appropriate emission filter sets. Cell culture: A-431 cells (ATCC CRL-1555) and COS-1 cells (ATCC CRL-1650) were cultivated in Dulbecco's Modified Eagle's Medium (DMEM), supplemented with 10% fetal bovine serum and grown in standard culture conditions in 10 cm dishes. OVCA-429 cells were cultivated in RPMI-1640 supplemented with 10% fetal bovine serum under standard culture conditions. For imaging experiments cells were plated on Millicell EZ slides (EMD Millipore, Inc, Billerica, Mass.). Antibody reagents: Monoclonal antibody-TCO conjugates were prepared by incubation of commercially available monoclonal antibodies TCO-PEG4-NHS (Click Chemistry Tools, Scottsdale, Ariz.). Anti EGFR (Cetuximab, Imclone). Anti cytochrome c oxidase (COXIV, Cell signaling Technology, #4844, Danvers, Mass.). An aliquot of antibody in the manufacturer-supplied storage solution was buffer exchanged into PBS with 10 mM sodium bicarbonate, pH 8.0, on a 40K ZebaSpin desalting column (0.5 mL, Thermo Fisher Scientific, Rockford, Ill.). To this solution was added 20 equivalents of TCO-PEG4-NHS; the mixture was allowed to react at 25° C. for 30 minutes, with continuous shaking. The reaction mix was loaded onto a 40K ZebaSpin column to remove organic solvent and small molecule fractions; this eluate was loaded onto a second 40K ZebaSpin column to ensure comprehensive removal of any excess TCO. EGFR Imaging: Fixed A431 cells were prepared by treatment with 4% paraformaldehyde solution (10 min, room temperature), followed by 3 washes with PBS. Fixed cells were stored at 4° C. until the time of imaging, when they were incubated for 20 minutes with 20 μg/mL cetuximab-TCO, then rinsed three times with PBS. For optimal image quality, HELIOS 370H probe must be purified on the day of imaging by reversed phase HPLC-MS. The concentration of stock solutions in PBS were calculated by absorbance spectrometry, based on the measured extinction coefficient of 19000 M^−1 cm^−1. Prior to imaging, the purified stock solutions were subjected to turn-on testing, verifying a fluorogenic turn-on ratio of >1000-fold for HELIOS 370H. For imaging experiments, the acetonitrile stocks were diluted into PBS to yield a 100 nM solution. […]
# [4] = tested on: epidermal growth factor receptor (EGFR) on A431 cells; experiment: No-wash fluorogenic imaging of EGFR on A431 cells after cetuximab-TCO; format: cell-based, human
# Text: as §2, with “For optimal image quality, HELIOS 370H probe must be purified on the day of imaging by reversed phase HPLC-MS.” left out, “cm^−1.” for “cm^−1. Prior to imaging, the purified stock solutions were subjected to turn-on testing, verifying a fluorogenic turn-on ratio of >1000-fold for HELIOS 370H. For imaging experiments, the acetonitrile stocks were diluted into PBS to yield a 100 nM solution.”
# [5] = tested on: mitochondria of OVCA-429 cells; experiment: Mitochondria imaging of OVCA-429 cells after anti-COX IV-TCO; format: cell-based
# Text: as §2, with “For optimal image quality, HELIOS 370H probe must be purified on the day of imaging by reversed phase HPLC-MS.” left out, “cm^−1.” for “cm^−1. Prior to imaging, the purified stock solutions were subjected to turn-on testing, verifying a fluorogenic turn-on ratio of >1000-fold for HELIOS 370H. For imaging experiments, the acetonitrile stocks were diluted into PBS to yield a 100 nM solution.”
# [6] = Solubility in aqueous media; format: physicochemical; settings: PBS, micromolar concentrations
# [7] = Solvent polarity effects on fluorescence emission of the native probe; format: physicochemical; settings: PBS pH 7.4, acetonitrile, toluene
# Method: FIG. 5 provides the absorption and fluorescence emission spectra of 4b in toluene (dielectric constant 2.4) and acetonitrile (dielectric constant 37.5). Samples were prepared by matched dilutions from a concentrated stock solution of 4b. For the fluorescence spectra, the excitation wavelength was offset from peak absorbance in that solvent by 10 nm; in toluene, the excitation wavelength was 496 nm; in acetonitrile,
# Fluorescence emission spectra of HELIOS 400Me in PBS (pH 7.4), acetonitrile (dielectric constant 37.5), and toluene (dielectric constant 2.4) was measured (see FIG. 10). Emission spectra are the mean of 2 or 3 scans and the dashed lines represent +/−SEM. Instrument settings were adjusted to optimize sensitivity given the minimal fluorescence of the native HELIOS probe, and samples were prepared by matched dilution of a concentrated stock solution of HELIOS 400Me into the respective solvents. […] J. Meskers, E. H. A. Beckers, S. Chopin, R. A. J. Janssen, J. Phys. Chem. A 2006, 110, 12363].
SMILES,Φ w/TCOc [2],ε [3],Peak Em Wavelength [3],Peak Ex Wavelength [3],peak turn-on ratio upon reaction with TCOc [1],Fluorescence Enhancement [1],other results
Cc1c(-c2cccc(-c3nncnn3)c2)c(=O)oc2c(F)c(O)c(F)cc12 [HELIOS 370H],,,,,,,"fluorogenic turn-on ratio of purified stock prior to imaging ([1]; turn-on testing of freshly purified stock solutions): > 1000 fold; measured extinction coefficient ([3]; stock solutions in PBS): 19000 M⁻¹ cm⁻¹; staining pattern ([4]; 100 nM in PBS, no wash): bright, membrane specific staining; time until specific staining evident ([4]; 100 nM probe in PBS, fixed A431 cells, cetuximab-TCO): ≤ 10 s; nonspecific binding ([4]; after extended incubation): no nonspecific binding"
Cc1c(-c2cccc(-c3nncnn3)c2)c(=O)oc2cc3c(cc12)CCCN3 [HELIOS 388H],,,,,,,"time until mitochondrial labeling evident ([5]; 100 nM, fixed and permeabilized OVCA-429 cells): ≤ 2 min; colocalization with mitochondria-specific RFP ([5]; OVCA-429 cells expressing RFP): good colocalization; target to background ratio over time ([5]; serial images up to an hour from dye addition): stable target to background ratios"
Cc1nnc(-c2cccc(-c3c(C)c4cc5c(cc4oc3=O)NCCC5)c2)nn1 [HELIOS 388Me],0.38,"20,000",482 nm,388 nm,"11,000 fold","11,000-fold",
Cc1nnc(-c2cccc(-c3c(C)c4cc5c6c(c4oc3=O)CCCN6CCC5)c2)nn1 [HELIOS 400Me],,,,,"4,000 fold",,Solubility in phosphate buffered saline [6]: soluble; dependence of fluorescence emission intensity on solvent polarity [7]: largely independent of solvent polarity
Cc1nnc(-c2ccc(-c3c(C)c4cc5c6c(c4oc3=O)CCCN6CCC5)cc2)nn1 [HELIOS 400pMe],,,,,"1,000 fold",,Solubility in phosphate buffered saline [6]: soluble

# The next lines start with results.
Φ w/TCOc [2],ε [3],Peak Em Wavelength [3],Peak Ex Wavelength [3],SMILES,peak turn-on ratio upon reaction with TCOc [1],Fluorescence Enhancement [1],other results
0.29,"18,500",455 nm,347 nm,Cc1nnc(-c2cccc(-c3c(C)c4ccc(N)cc4oc3=O)c2)nn1 [HELIOS 347Me],"2,500 fold","2,500-fold",
0.49,"19,000",463 nm,370 nm,Cc1nnc(-c2cccc(-c3c(C)c4cc(F)c(O)c(F)c4oc3=O)c2)nn1 [HELIOS 370Me],"2,900 fold","2,900-fold",
,,459 nm,362 nm,"Cc1c(CC(=O)NCc2ccc(-c3nncnn3)cc2)c(=O)oc2c(F)c(O)c(F)cc12 [Marina Blue-Tz, reference compound]",60 fold,60-fold,
